Data: ChEMBL document CHEMBL1201862, “PubChem BioAssay data set” (2004)
The source made the active and inactive calls.

Assays:
[1] = target: T1, Oxysterols receptor LXR-beta (Homo sapiens, UniProt P55055); format: functional, cell-based;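 further: agonist activity at LXR measured by a cell-based luminescence readout across a dose range, run as a counterscreen for daf-12 agonists; HEK293 cells with Gal4-LXR fusion and GAL4-driven luciferase reporter; potency for activation of Gal4-LXR reporter so compounds are agonists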
T1 sequence (P55055 whole entry): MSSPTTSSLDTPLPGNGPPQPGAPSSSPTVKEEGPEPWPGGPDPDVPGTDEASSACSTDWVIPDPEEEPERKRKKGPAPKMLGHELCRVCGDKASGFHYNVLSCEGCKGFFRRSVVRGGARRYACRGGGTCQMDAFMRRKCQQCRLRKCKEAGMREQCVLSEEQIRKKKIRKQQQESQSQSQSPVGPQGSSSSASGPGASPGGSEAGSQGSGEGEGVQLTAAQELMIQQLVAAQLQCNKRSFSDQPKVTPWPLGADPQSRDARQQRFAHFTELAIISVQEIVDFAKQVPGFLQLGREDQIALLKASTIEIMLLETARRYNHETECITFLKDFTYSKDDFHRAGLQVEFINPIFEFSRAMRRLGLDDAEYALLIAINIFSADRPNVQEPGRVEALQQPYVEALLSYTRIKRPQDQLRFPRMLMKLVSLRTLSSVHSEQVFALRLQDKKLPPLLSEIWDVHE

[2] = target: T2, Heat shock factor protein 1 (Mus musculus, UniProt P38532); assay: enhancement of HSF1-driven luciferase signal – cell-based, NIH3T3, luminescence, dose retest, confirmation (AID 435004); format: functional;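 further: stress induced by proteasome inhibitor MG132 added 30 min after compound; luciferase reporter driven by HSF1 response element in NIH3T3 cells; actives raise luminescence as potentiators of the MG132 stress response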
T2 sequence (P38532 whole entry): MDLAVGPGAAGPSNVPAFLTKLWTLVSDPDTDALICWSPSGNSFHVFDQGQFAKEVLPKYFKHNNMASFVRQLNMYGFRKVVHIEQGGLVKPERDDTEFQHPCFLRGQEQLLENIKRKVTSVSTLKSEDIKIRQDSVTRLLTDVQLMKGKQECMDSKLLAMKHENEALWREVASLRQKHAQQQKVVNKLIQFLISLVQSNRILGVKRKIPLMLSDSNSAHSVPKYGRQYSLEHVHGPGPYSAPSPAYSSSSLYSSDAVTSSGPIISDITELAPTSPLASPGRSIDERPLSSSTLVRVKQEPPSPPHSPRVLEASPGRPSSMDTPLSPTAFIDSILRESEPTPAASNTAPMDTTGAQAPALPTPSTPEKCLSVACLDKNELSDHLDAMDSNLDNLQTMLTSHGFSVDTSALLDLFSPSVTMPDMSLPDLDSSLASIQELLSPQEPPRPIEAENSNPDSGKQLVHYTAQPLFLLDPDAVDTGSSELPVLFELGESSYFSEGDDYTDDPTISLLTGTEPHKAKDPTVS

[3] = A cytotoxicity screen of small molecule inhibitors of the PhoP region in Salmonella typhi identified in the primary screen. [Related pubchem assays: 1850, 1864, 1985 ]; format: functional
Vero = assay: cells; format: functional; conditions: Chlorocebus sabaeus
cells [4] = assay: cells
[5] = Trypanosoma cruzi growth suppression in host cells – NIH3T3 host cells, beta-gal luminescence, confirmation (AID 2044); format: functional, cell-based;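 further: intracellular parasites grown in NIH/3T3 mouse fibroblasts as host cells; luminescent beta-galactosidase reporter signal from transgenic T. cruzi replicating inside host cells; inhibitors lower the luminescence signal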
[6] = NIH3T3 cell viability loss – ATP luminescence, mouse fibroblasts, counter-screen, dose response (AID 2010); format: functional, cell-based;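 further: cells exposed to compound for about 90 hours before reading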
[7] = viability of uninfected HEp-2 cells – cell-based, HTS, cytotoxicity control for RSV inhibitor project, dose response (AID 2410); format: functional; conditions: human respiratory syncytial virus
[8] = NIH-3T3 fibroblast cytotoxicity, dose response, cytotoxicity control, cell-based, fluorescence, Alamar Blue, secondary assay (AID 2327); format: functional;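 further: NIH-3T3 mouse fibroblasts cultured with fluconazole at 8 µg/mL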
cells [9] = assay: cells; remark: listed apart in the source
[10] = fluconazole-exposed Candida albicans growth modulators – fluorescence, retest, confirmation (AID 2467); format: functional, cell-based
[11] = target: T3, Calpain-2 catalytic subunit (Sus scrofa, UniProt P43367); assay: m-calpain protease blockers, concentration series – biochemical, fluorogenic peptide substrate, dose response (AID 1420); format: functional
T3 sequence (P43367 whole entry): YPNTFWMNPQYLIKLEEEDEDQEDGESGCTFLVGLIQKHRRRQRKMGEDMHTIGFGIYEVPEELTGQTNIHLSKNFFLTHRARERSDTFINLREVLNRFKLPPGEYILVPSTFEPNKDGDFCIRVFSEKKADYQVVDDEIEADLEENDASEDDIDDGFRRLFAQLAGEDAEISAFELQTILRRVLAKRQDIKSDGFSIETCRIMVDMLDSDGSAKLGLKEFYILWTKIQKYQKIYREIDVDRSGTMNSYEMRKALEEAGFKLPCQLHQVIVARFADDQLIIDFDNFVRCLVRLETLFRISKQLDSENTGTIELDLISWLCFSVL

[12] = toxicity to human HepG2 hepatoma cells – cell-based, plate reader, dry powder samples, cytotoxicity control, dose response (AID 1159569); format: functional;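 further: inhibitor potency with signal falling toward the positive control level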
[13] = growth inhibition of yeast DHODH-expressing 3D7 parasites – SYBR Green, dry powder samples, dose response (AID 1159570); format: functional, cell-based;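 further: parasite growth measured after 72 hours of compound exposure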
[14] = growth inhibition of PfATP4-mutant resistant parasites – NITD609-resistant line, SYBR Green, dry powder, dose response (AID 1159571); format: functional, cell-based;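 further: parasites synchronized at ring stage by sorbitol before testing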
[15] = Dd2 malaria parasite growth inhibition potency – SYBR Green, dry powder samples, dose response (AID 1159566); format: functional, cell-based;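 further: potency for growth inhibition with lower SYBR green DNA signal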
[16] = target: T4, Short transient receptor potential channel 4 (Mus musculus, UniProt Q9QUQ5); assay: calcium entry via TRPC4 opening agents – cell-based, HEK293 TRPC4/mu-opioid, Fluo-4 calcium, dose response (AID 434937); format: functional
T4 sequence (Q9QUQ5 whole entry): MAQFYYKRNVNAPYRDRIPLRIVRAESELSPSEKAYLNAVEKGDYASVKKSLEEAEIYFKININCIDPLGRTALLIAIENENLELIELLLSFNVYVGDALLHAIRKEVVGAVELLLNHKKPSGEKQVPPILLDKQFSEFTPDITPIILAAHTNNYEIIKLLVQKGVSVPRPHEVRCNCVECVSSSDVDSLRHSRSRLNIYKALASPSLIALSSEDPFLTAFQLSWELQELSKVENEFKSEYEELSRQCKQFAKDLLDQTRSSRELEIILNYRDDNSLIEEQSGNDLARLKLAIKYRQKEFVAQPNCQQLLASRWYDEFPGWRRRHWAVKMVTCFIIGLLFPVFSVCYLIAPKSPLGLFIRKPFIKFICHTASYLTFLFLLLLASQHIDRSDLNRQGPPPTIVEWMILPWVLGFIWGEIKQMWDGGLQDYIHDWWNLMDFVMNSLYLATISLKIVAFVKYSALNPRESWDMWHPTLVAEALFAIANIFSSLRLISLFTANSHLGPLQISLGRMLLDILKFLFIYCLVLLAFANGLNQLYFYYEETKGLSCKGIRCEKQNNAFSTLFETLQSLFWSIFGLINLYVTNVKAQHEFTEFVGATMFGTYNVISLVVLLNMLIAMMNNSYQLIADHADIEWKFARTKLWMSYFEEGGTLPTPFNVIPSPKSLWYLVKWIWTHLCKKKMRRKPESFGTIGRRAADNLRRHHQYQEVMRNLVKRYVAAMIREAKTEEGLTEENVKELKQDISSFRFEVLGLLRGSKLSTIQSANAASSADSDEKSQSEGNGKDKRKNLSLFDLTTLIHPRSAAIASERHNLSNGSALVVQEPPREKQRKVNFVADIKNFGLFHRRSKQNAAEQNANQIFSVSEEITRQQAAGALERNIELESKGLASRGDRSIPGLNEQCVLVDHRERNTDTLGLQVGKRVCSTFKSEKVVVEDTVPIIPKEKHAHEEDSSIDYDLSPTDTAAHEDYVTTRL

[17] = P. falciparum Dd2 growth inhibitors, dose response, SYBR Green, cherry-picked samples (AID 1159567); format: functional, cell-based

## Cc1ccc(CN2CCN(CC(C)C)C(CCO)C2)s1 (stereo not drawn)
[1]
  EC50: > 67.6 µM (inactive)
[2]
  EC50: 98.2 µM (active)

## CCNC(=O)Oc1cccnc1O
[3]
  EC50: > 50 µM (active)

## CN(C)CCCN(C(=O)c1nc2ccccc2s1)c1nc2ccc(F)cc2s1
Vero
  CC50: > 25 µM (active)
Cells [4]
  EC50: < 0.004 µM (active)
[5]
  EC50: < 0.1 µM (active)
[6]
  EC50: > 60 µM (not active)

## Cc1c2ccccc2nc2c(F)c(NCCO)c(F)c(F)c12
[7]
  CC50: 1.77 µM (active)
[8]
  EC50: > 160 µM (inactive)
Cells [9]
  IC50: 1.53 µM (active)
[10]
  EC50: > 38 µM (not active)

## O=C(CCCN1C(=O)c2cccc3cccc(c23)C1=O)N1CCN(c2ccccn2)CC1
[11]
  IC50: 2.13 µM (not active)

## COc1cccc(NC(=O)N(C)C[C@@H]2Oc3cc(C#Cc4ccccc4)ccc3S(=O)(=O)N([C@@H](C)CO)C[C@@H]2C)c1
[12]
  AC50: > 100 µM (inactive)
[13]
  AC50: 1.14 µM (active)
[14]
  AC50: 1.35 µM (active)
[15]
  AC50: 1.33 µM (active)

## Cc1ccccc1-n1nnnc1SCc1ncc(-c2ccccc2)o1
[11]
  IC50: 5.05 µM (not active)

## CC(C)Cc1ccc(CN2CCCC(NC(=O)CCn3cnnn3)C2)cc1 (stereo not drawn)
Cells [4]
  EC50: 0.046 µM (active)
[5]
  EC50: < 0.1 µM (active)
[16]
  EC50: 4.22 µM (active)
[6]
  EC50: > 30 µM (not active)

## Cc1ccc(S(=O)(=O)NCC(=O)OCN2C(=O)c3ccccc3C2=O)cc1
[3]
  EC50: > 50 µM (active)

## COc1ccccc1CN1C[C@@H]2N[C@H](C1)[C@@H]2c1ccc(-c2ccncc2)cc1
[12]
  AC50: 24.6 µM (active)
[13]
  AC50: 3.59 µM (active)
[17]
  AC50: 2.48 µM (active)
[14]
  AC50: 3.07 µM (active)
[15]
  AC50: 2.02 µM (active)

## O=C(OCc1nnc(-c2ccccc2)o1)C12CC3CC(CC(Br)(C3)C1)C2
[11]
  IC50: 3.14 µM (not active)
